SMILES strings stand for the structures.

The values that follow come from patent US10961202B2, “Bis-benzimidazole compounds and methods of using the same” (THE SCRIPPS RESEARCH INSTITUTE, priority 2017, dated 2021).

The subject of the experiment is r(CUG)12-MBNL1 complex. Briefly: Inhibition of the r(CUG)12-MBNL1 complex measured by TR-FRET. Type of experiment: biochemical. The following applies: 80 nM RNA, 60 nM MBNL1-His6.

Turning to `CC(C)(C)OC(=O)N1CCN(CCNC(=O)c2ccc3nc(-c4ccc(-c5nc6ccc(C(=O)NCCN7CCN(C(=O)OC(C)(C)C)CC7)cc6[nH]5)cc4)[nH]c3c2)CC1` [Compound 46, di-tert-butyl 4,4′-(((2,2′-(1,4-phenylene)bis(1H-benzo[d]imidazole-6,6′-carbonyl))bis(azanediyl))bis(ethane-2,1-diyl))bis(piperazine-1-carboxylate)], the IC50 (Table L) was greater than 200 µM.
`CN(C)CCNC(=O)c1ccc(-c2nc3ccc(-c4ccc5nc(-c6ccc(C(=O)N(C)CCCc7cn(CCCNCC(=O)N8CCC[C@H]8C(=O)N8CCC[C@H]8C(=O)N8CCC[C@H]8C(=O)N8CCC[C@H]8C(=O)N(CCCn8cc(CCCN(C)C(=O)c9ccc(-c%10nc%11ccc(-c%12ccc%13nc(-c%14ccc(C(=O)NCCN(C)C)cc%14)[nH]c%13c%12)cc%11[nH]%10)cc9)nn8)CC(N)=O)nn7)cc6)[nH]c5c4)cc3[nH]2)cc1` [Compound 435] showed an IC50 (Table M) of 13.3 µM.
For the setting “Table M”, `CN1CCC(NC(=O)c2ccc(-c3nc4cc(-c5ccc6[nH]c(-c7ccc(C(=O)O)cc7)nc6c5)ccc4[nH]3)cc2)CC1` [Compound 344] gave an IC50 of 154 µM.
`CN(C)CCOCCOc1ccc2nc(-c3ccc(-c4nc5ccc(OCCOCCN(C)C)cc5[nH]4)cc3)[nH]c2c1` [Compound 179, 2,2′-((((1,4-phenylenebis(1H-benzo[d]imidazole-2,6-diyl))bis(oxy))bis(ethane-2,1-diyl))bis(oxy))bis(N,N-dimethylethan-1-amine)] gave an IC50 (Table M) of 189 µM.
In turn, `c1ccc(Nc2ccc3nc(-c4ccc(-c5nc6ccc(Nc7ccccn7)cc6[nH]5)cc4)[nH]c3c2)nc1` [Compound 22, 2,2′-(1,4-phenylene)bis(N-(pyridin-2-yl)-1H-benzo[d]imidazol-5-amine)] returned an IC50 (Table L) of 169 µM.
For the setting “Table M”, `CN(C)CCCOc1ccc2nc(-c3cccc(-c4nc5ccc(OCCCN(C)C)cc5[nH]4)c3)[nH]c2c1` [Compound 253, 3,3′-((1,3-phenylenebis(1H-benzo[d]imidazole-2,6-diyl))bis(oxy))bis(N,N-dimethylpropan-1-amine)] had an IC50 greater than 200 µM.
For `CN1C(C)(C)CC(Oc2ccc3nc(-c4ccc(-c5nc6ccc(OC7CC(C)(C)N(C)C(C)(C)C7)cc6[nH]5)cc4)[nH]c3c2)CC1(C)C` [Compound 183, 1,4-bis(6-((1,2,2,6,6-pentamethylpiperidin-4-yl)oxy)-1H-benzo[d]imidazol-2-yl)benzene], it took 114 µM to reach half-maximal inhibition (Table M) (IC50).
Same read-out and setting: then `CN(C)CCCOc1ccc2c(c1)nc(-c1ccc(-c3nc4cc(OCCCN(C)C)ccc4n3C)cc1)n2C` [Compound 309], with greater than 200 µM.
The compound `C[N+](C)(C)CCNC(=O)c1ccc2nc(-c3ccc(-c4nc5ccc(C(=O)NCC[N+](C)(C)C)cc5[nH]4)cc3)[nH]c2c1` [Compound 31, 2,2′-((2,2′-(1,4-phenylene)bis(1H-benzo[d]imidazole-6,6′-carbonyl))bis(azanediyl))bis(N,N,N-trimethylethanaminium) chloride] showed an IC50 (Table L) of 15.4 µM.
In turn, `CN(C)CCNC(=O)c1ccc(-c2nc3cc(-c4ccc5[nH]c(-c6ccc(C(=O)NCCCCCCCCNC(=O)c7ccc(-c8nc9cc(-c%10ccc%11[nH]c(-c%12ccc(C(=O)NCCN(C)C)cc%12)nc%11c%10)ccc9[nH]8)cc7)cc6)nc5c4)ccc3[nH]2)cc1` [Compound 422] registered an IC50 (Table M) of 5.65 µM.
For the setting “Table L”, `CN1CCN(CCNC(=O)c2ccc3nc(-c4ccc(-c5nc6ccc(C(=O)NCCN7CCN(C)CC7)cc6[nH]5)cc4)[nH]c3c2)CC1` [Compound 45, 2,2′-(1,4-phenylene)bis(N-(2-(4-methylpiperazin-1-yl)ethyl)-1H-benzo[d]imidazole-6-carboxamide)] displayed an IC50 of 18.2 µM.
`CN(C)CCOCCOc1ccc(-c2nc3cc(-c4ccc5[nH]c(-c6ccc(OCCOCCN(C)C)cc6)nc5c4)ccc3[nH]2)cc1` [Compound 367]: the IC50 (Table M) was 21.5 µM.
On the same count and under the same terms, then `CN(C)CCNC(=O)c1ccc(-c2nc3cc(-c4ccc5[nH]c(-c6ccc(C(=O)NC7CCCCC7NC(=O)c7ccc(-c8nc9cc(-c%10ccc%11[nH]c(-c%12ccc(C(=O)NCCN(C)C)cc%12)nc%11c%10)ccc9[nH]8)cc7)cc6)nc5c4)ccc3[nH]2)cc1` (stereo not shown) [Compound 410], with 34.4 µM.
`COC(=O)CCC(=O)NCCN(C)CCNC(=O)c1ccc2nc(-c3ccc(-c4nc5ccc(C(=O)NCCN(C)C)cc5[nH]4)cc3)[nH]c2c1` [Compound 72] showed an IC50 (Table L) of 52.1 µM.
`N=C(N)c1ccc2nc(-c3ccc(-c4nc5ccc(C(=N)N)cc5[nH]4)cc3)[nH]c2c1` [Compound 26, 2,2′-(1,4-phenylene)bis(1H-benzo[d]imidazole-6-carboximidamide) acetate] had an IC50 (Table L) of 6.6 µM.
`CN(C)CCNC(=O)c1ccc(-c2nc3ccc(-c4ccc5nc(-c6ccc(C(=O)N[C@@H]7CCN(C(=O)c8ccc(-c9nc%10ccc(-c%11ccc%12nc(-c%13ccc(C(=O)NCCN(C)C)cc%13)[nH]c%12c%11)cc%10[nH]9)cc8)C7)cc6)[nH]c5c4)cc3[nH]2)cc1` [Compound 454]: the IC50 (Table M) is 3.4 µM.
In turn, `N#CCCCOc1ccc2nc(-c3ccc(-c4nc5ccc(OCCCC#N)cc5[nH]4)cc3)[nH]c2c1` [Compound 289] gave an IC50 (Table M) greater than 200 µM.
With `COc1ccc(-c2nc3cc(-c4ccc5[nH]c(-c6ccc(OC)cc6)nc5c4)ccc3[nH]2)cc1` [Compound 106], the IC50 (Table L) is greater than 200 µM.
As to `CN(C)CCCOc1ccc2c(c1)nc(-c1ccc(-c3nc4ccc(OCCCN(C)C)cc4n3C)cc1)n2C` [Compound 311], the IC50 (Table M) was greater than 200 µM.
`c1cc2nc(-c3ccc(-c4nc5ccc(NC6=NCCN6C6=NCCN6)cc5[nH]4)cc3)[nH]c2cc1NC1=NCCN1` [Compound 76] displayed an IC50 (Table L) of 14.5 µM.
On to `CN1C(C)(C)CC(Oc2ccc(-c3nc4cc(-c5ccc6[nH]c(-c7ccc(OC8CC(C)(C)N(C)C(C)(C)C8)cc7)nc6c5)ccc4[nH]3)cc2)CC1(C)C` [Compound 366], for which, for the setting “Table M”, the IC50 was greater than 200 µM.
Same read-out and setting: then `c1cc2nc(-c3ccc(-c4nc5ccc(OCCCN6CCCC6)cc5[nH]4)cc3)[nH]c2cc1OCCCN1CCCC1` [Compound 295], with 69.9 µM.
Compound `CN(C)CCNC(=O)c1ccc2nc(-c3ccc(-c4nc5ccc(C(=O)NCCN(C)C)cc5[nH]4)c(Br)c3)[nH]c2c1` [Compound 78] displayed an IC50 (Table L) greater than 200 µM.
For the compound `Brc1ccc(-c2nc3cc(-c4ccc5[nH]c(-c6ccc(Br)cc6)nc5c4)ccc3[nH]2)cc1` [Compound 104], the IC50 (Table L) is greater than 200 µM.
Consider `CN(C)C(C)(C)CCOc1ccc2nc(-c3ccc(-c4nc5ccc(OCCC(C)(C)N(C)C)cc5[nH]4)cc3)[nH]c2c1` [Compound 282, 4,4′-((1,4-phenylenebis(1H-benzo[d]imidazole-2,6-diyl))bis(oxy))bis(N,N,2-trimethylbutan-2-amine)], for which the concentration for half-maximal inhibition (IC50) (Table M) is 179 µM.
As to `CN(C)CCCCOc1ccc2nc(-c3ccc(-c4nc5ccc(OCCCCN(C)C)cc5[nH]4)cc3)[nH]c2c1` [Compound 197, 4,4′-((1,4-phenylenebis(1H-benzo[d]imidazole-2,6-diyl))bis(oxy))bis(N,N-dimethylbutan-1-amine)], the IC50 (Table M) stood at 33.6 µM.
Compound `CN(C)CCNC(=O)c1ccc(-c2nc3cc(-c4ccc5[nH]c(-c6ccc(C(=O)NCCCCCCNC(=O)c7ccc(-c8nc9cc(-c%10ccc%11[nH]c(-c%12ccc(C(=O)NCCN(C)C)cc%12)nc%11c%10)ccc9[nH]8)cc7)cc6)nc5c4)ccc3[nH]2)cc1` [Compound 419] showed an IC50 (Table M) of 4.85 µM.
In turn, `CN(C)CCNC(=O)COc1ccc2nc(-c3ccc(-c4nc5ccc(OCC(=O)NCCN(C)C)cc5[nH]4)cc3)[nH]c2c1` [Compound 284, 2,2′-((1,4-phenylenebis(1H-benzo[d]imidazole-2,6-diyl))bis(oxy))bis(N-(2-(dimethylamino)ethyl)acetamide)] showed an IC50 (Table M) of 24.1 µM.
With `NC(=O)Nc1ccc(-c2nc3cc(-c4ccc5[nH]c(-c6ccc(NC(N)=O)cc6)nc5c4)ccc3[nH]2)cc1` [Compound 97], the midpoint of inhibition (Table L), the IC50, lay at 71 µM.
As for `NC(=O)c1ccc2nc(-c3ccc(-c4nc5ccc(C(N)=O)cc5[nH]4)cc3)[nH]c2c1` [Compound 12, 2,2′-(1,4-phenylene)bis(1H-benzo[d]imidazole-6-carboxamide)], the IC50 (Table L) is greater than 200 µM.
`CC(=O)NCCNC(=O)c1ccc2nc(-c3ccc(-c4nc5ccc(C(=O)NCCNC(C)=O)cc5[nH]4)cc3)[nH]c2c1` [Compound 51, 2,2′-(1,4-phenylene)bis(N-(2-acetamidoethyl)-1H-benzo[d]imidazole-6-carboxamide)] gave an IC50 (Table L) greater than 200 µM.
`C[C@@H](C(=O)N(C)[C@@H](C)C(=O)N(C)[C@@H](C)C(=O)N(CCCCN(C)C(=O)c1ccc(-c2nc3cc(-c4ccc5[nH]c(-c6ccc(C(=O)NCCN(C)C)cc6)nc5c4)ccc3[nH]2)cc1)CC(N)=O)N(C)C(=O)c1ccc(-c2nc3cc(-c4ccc5[nH]c(-c6ccc(C(=O)NCCN(C)C)cc6)nc5c4)ccc3[nH]2)cc1` [Compound 415] had an IC50 (Table M) of 5.15 µM.
The compound `CN(C)C/C=C\COc1ccc2nc(-c3ccc(-c4nc5ccc(OC/C=C\CN(C)C)cc5[nH]4)cc3)[nH]c2c1` [Compound 244, (2Z,2′Z)-4,4′-((2,2′-(1,4-phenylene)bis(1H-benzo[d]imidazole-6,2-diyl))bis(oxy))bis(N,N-dimethylbut-2-en-1-amine)] had an IC50 (Table M) of 23.5 µM.
Compound `CN(C)CCNC(=O)c1ccc(-c2nc3ccc(-c4ccc5nc(-c6ccc(C(=O)NCCCOCCOCCOCCCNC(=O)c7ccc(-c8nc9ccc(-c%10ccc%11nc(-c%12ccc(C(=O)NCCN(C)C)cc%12)[nH]c%11c%10)cc9[nH]8)cc7)cc6)[nH]c5c4)cc3[nH]2)cc1` [Compound 429] gave an IC50 (Table M) of 9.6 µM.
In the case of `CN1CCC(COc2ccc3nc(-c4ccc(-c5nc6ccc(O)cc6[nH]5)cc4)[nH]c3c2)CC1` [Compound 194, 2-(4-(6-((1-methylpiperidin-4-yl)methoxy)-1H-benzo[d]imidazol-2-yl)phenyl)-1H-benzo[d]imidazol-6-ol], the IC50 (Table M) was 39 µM.
As to `CN(C)CCNC(=O)c1ccc(-c2nc3cc(-c4ccc5[nH]c(-c6ccc(C(=O)NCCCCCCCCCNC(=O)c7ccc(-c8nc9cc(-c%10ccc%11[nH]c(-c%12ccc(C(=O)NCCN(C)C)cc%12)nc%11c%10)ccc9[nH]8)cc7)cc6)nc5c4)ccc3[nH]2)cc1` [Compound 423], the IC50 (Table M) came out at 5.31 µM.
The compound `CN(C)CCCOc1ccc2nc(-c3ccc(-c4nc5ccc(OCCCN(C)C)c(F)c5[nH]4)cc3)[nH]c2c1F` [Compound 280] returned an IC50 (Table M) of 31.3 µM.

One may read the IC50 as the midpoint of a concentration-inhibition curve. A low value points to higher potency.
